Assay results as given in US20260315464A1, “COMPOSITIONS, METHODS, AND SYSTEMS FOR MODULATING SPLICING OF MSH3” (REVIR THERAPEUTICS, INC., priority 2023, published 2026).
Blank lines part the entries; values can stand above or below the compound they belong to.

System: MSH3
Test: QPCR assay for levels of MSH3 upon compound treatment in HEK293T or AD293 cells (fold-change of MSH3 transcript, EC50 of MSH3 downregulation; total MSH3 exons 13/14, exons 20/21; Table 8)
Type: cell-based
Conditions: for EC50: EC50 of MSH3 downregulation, XtalPi; for mrna remaining at 1 µM / mrna remaining at 10 µM: Homo sapiens, fold-change of the MSH3 transcript, normalized to GAPDH; for mrna remaining at 1 µM: 1 μM compound; for mrna remaining at 10 µM: 10 μM compound
How it was run: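 HEK293T or AD293 cells were treated at 1 μM and […]; RNA-to-cDNA qPCR used TaqMan assays for total MSH3 (exons 13/14, exons 20/21) and poison-exon junctions exon 13/PE14A and exon 20/PE21A. Transcript levels were normalized to GAPDH.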

EC50: 799 nM
SMILES: Cc1nn(C)nc1-c1cc(F)c2c(c1)C(=O)N(c1ccc(O[C@H]3C[C@]4(C)CC[C@](C)(C3)N4)nn1)C2 [Compound 283, 6-(2,5-dimethyl-2H-1,2,3-triazol-4-yl)-2-(6-(((1R,3s,5S)-1,5-dimethyl-8-azabicyclo[3.2.1]octan-3-yl)oxy)pyridazin-3-yl)-4-fluoroisoindolin-1-one]
mrna remaining at 1 µM: 48%
mrna remaining at 10 µM: 11%

SMILES: Cc1nn(C)cc1-c1cc(F)c2c(c1)C(=O)N(c1ccc(OC3CC(C)(C)NC4(CC4)C3)nn1)C2 (stereo not shown) [Compound 284, 6-(1,3-dimethyl-1H-pyrazol-4-yl)-2-(6-((5,5-dimethyl-4-azaspiro[2.5]octan-7-yl)oxy)pyridazin-3-yl)-4-fluoroisoindolin-1-one]
mrna remaining at 1 µM: 91%
mrna remaining at 10 µM: 73%

SMILES: Cc1nc(C)c(-c2cc(F)c3c(c2)C(=O)N(c2ccc(O[C@H]4C[C@]5(C)CC[C@](C)(C4)N5)nn2)C3)s1 [Compound 286, 2-(6-(((1R,3s,5S)-1,5-dimethyl-8-azabicyclo[3.2.1]octan-3-yl)oxy)pyridazin-3-yl)-6-(2,4-dimethylthiazol-5-yl)-4-fluoroisoindolin-1-one]
mrna remaining at 1 µM: 117%
mrna remaining at 10 µM: 59%

SMILES: Cc1nc(C)c(-c2cc(F)c3c(c2)C(=O)N(c2ccc(N(C)[C@H]4C[C@]5(C)CC[C@](C)(C4)N5)nn2)C3)s1 [Compound 289, 2-(6-(((1R,3s,5S)-1,5-dimethyl-8-azabicyclo[3.2.1]octan-3-yl)(methyl)amino)pyridazin-3-yl)-6-(2,4-dimethylthiazol-5-yl)-4-fluoroisoindolin-1-one]
mrna remaining at 1 µM: 73%
mrna remaining at 10 µM: 22%

SMILES: Cc1nn(C)cc1-c1cc(F)c2c(c1)C(=O)N(c1cnc(N(C)[C@H]3C[C@]4(C)CC[C@](C)(C3)N4)nn1)C2 [Compound 291, 6-(1,3-dimethyl-1H-pyrazol-4-yl)-2-(3-(((1R,3s,5S)-1,5-dimethyl-8-azabicyclo[3.2.1]octan-3-yl)(methyl)amino)-1,2,4-triazin-6-yl)-4-fluoroisoindolin-1-one]
mrna remaining at 1 µM: 93%
mrna remaining at 10 µM: 81%

EC50: ~1060 nM
SMILES: Cc1nn(C)nc1-c1cc(F)c2c(c1)C(=O)N(c1ccc(N(C)C3CC(C)(C)NC(C)(C)C3)nn1)C2 [Compound 293, 6-(2,5-dimethyl-2H-1,2,3-triazol-4-yl)-4-fluoro-2-(6-(methyl(2,2,6,6-tetramethylpiperidin-4-yl)amino)pyridazin-3-yl)isoindolin-1-one]
mrna remaining at 1 µM: 54%
mrna remaining at 10 µM: 12%

EC50: 480 nM
SMILES: Cc1nn(C)nc1-c1cc(F)c2c(c1)C(=O)N(c1ccc(N(C)[C@H]3C[C@]4(C)CC[C@](C)(C3)N4)nn1)C2 [Compound 294, 6-(2,5-dimethyl-2H-1,2,3-triazol-4-yl)-2-(6-(((1R,3s,5S)-1,5-dimethyl-8-azabicyclo[3.2.1]octan-3-yl)(methyl)amino)pyridazin-3-yl)-4-fluoroisoindolin-1-one]
mrna remaining at 1 µM: 27%
mrna remaining at 10 µM: 12%

SMILES: Cc1nn(C)cc1-c1cc(F)c2c(c1)C(=O)N(c1ccc(N3CCN[C@@H](C(C)C)C3)nn1)C2 [Compound 296, (S)-6-(1,3-dimethyl-1H-pyrazol-4-yl)-4-fluoro-2-(6-(3-isopropylpiperazin-1-yl)pyridazin-3-yl)isoindolin-1-one]
mrna remaining at 1 µM: 54%

SMILES: Cc1nn(C)nc1-c1cc(F)c2c(c1)C(=O)N(c1ccc(N3CCN[C@@H](C(C)(C)C)C3)nn1)C2 [Compound 298, (S)-2-(6-(3-(tert-butyl)piperazin-1-yl)pyridazin-3-yl)-6-(2,5-dimethyl-2H-1,2,3-triazol-4-yl)-4-fluoroisoindolin-1-one]
mrna remaining at 1 µM: 89%
mrna remaining at 10 µM: 29%

SMILES: Cn1ncc(-c2ccc3c(c2)C(=O)N(c2ccc(OC4CC(C)(C)NC(C)(C)C4)nn2)C3)n1 [Compound 362, 6-(2-methyl-2H-1,2,3-triazol-4-yl)-2-(6-((2,2,6,6-tetramethylpiperidin-4-yl)oxy)pyridazin-3-yl)isoindolin-1-one]
mrna remaining at 1 µM: 65%
mrna remaining at 10 µM: 75%

SMILES: CN(c1ccc(N2Cc3ccc(-c4cnn(C)c4)cc3C2=O)nn1)[C@H]1C[C@]2(C)CC[C@](C)(C1)N2 [Compound 367, 2-(6-(((1R,3s,5S)-1,5-dimethyl-8-azabicyclo[3.2.1]octan-3-yl)(methyl)amino)pyridazin-3-yl)-6-(1-methyl-1H-pyrazol-4-yl)isoindolin-1-one]
mrna remaining at 1 µM: 57%
mrna remaining at 10 µM: 27%

SMILES: CN(c1ccc(N2Cc3ccc(-c4cnn(C)n4)cc3C2=O)nn1)C1CC(C)(C)NC(C)(C)C1 [Compound 370, 2-(6-(methyl(2,2,6,6-tetramethylpiperidin-4-yl)amino)pyridazin-3-yl)-6-(2-methyl-2H-1,2,3-triazol-4-yl)isoindolin-1-one]
mrna remaining at 1 µM: 69%
mrna remaining at 10 µM: 61%

SMILES: [2H]C([2H])([2H])n1cc(-c2ccc3c(c2)C(=O)N(c2ccc(N(C)[C@H]4C[C@]5(C)CC[C@](C)(C4)N5)nn2)C3)cn1 [Compound 387, 2-(6-(((1R,3s,5S)-1,5-dimethyl-8-azabicyclo[3.2.1]octan-3-yl)(methyl)amino)pyridazin-3-yl)-6-(1-(methyl-d3)-1H-pyrazol-4-yl)isoindolin-1-one]
mrna remaining at 1 µM: 96%
mrna remaining at 10 µM: 63%

SMILES: Cn1cc(-c2ccc3c(c2)C(=O)N(c2ccc(N4CCN[C@@H](C(C)(C)C)C4)nn2)C3)cn1 [Compound 399, (S)-2-(6-(3-(tert-butyl)piperazin-1-yl)pyridazin-3-yl)-6-(1-methyl-1H-pyrazol-4-yl)isoindolin-1-one]
mrna remaining at 1 µM: 65%
mrna remaining at 10 µM: 43%

SMILES: Cc1nn(C)cc1-c1ccc2c(c1)C(=O)N(c1ccc(O[C@H]3C[C@]4(C)CC[C@](C)(C3)N4)nn1)C2 [Compound 416, 6-(1,3-dimethyl-1H-pyrazol-4-yl)-2-(6-(((1R,3s,5S)-1,5-dimethyl-8-azabicyclo[3.2.1]octan-3-yl)oxy)pyridazin-3-yl)isoindolin-1-one]
mrna remaining at 1 µM: 37%

SMILES: CN(c1ncc(N2Cc3ccc(-c4cnn(C)n4)cc3C2=O)nn1)C1CC(C)(C)NC(C)(C)C1 [Compound 420, 2-(3-(methyl(2,2,6,6-tetramethylpiperidin-4-yl)amino)-1,2,4-triazin-6-yl)-6-(2-methyl-2H-1,2,3-triazol-4-yl)isoindolin-1-one]
mrna remaining at 1 µM: 74%
mrna remaining at 10 µM: 73%

SMILES: Cc1nn(C)cc1-c1ccc2c(c1)C(=O)N(c1ccc(N(C)[C@H]3C[C@]4(C)CC[C@](C)(C3)N4)nn1)C2 [Compound 423, 6-(1,3-dimethyl-1H-pyrazol-4-yl)-2-(6-(((1R,3s,5S)-1,5-dimethyl-8-azabicyclo[3.2.1]octan-3-yl)(methyl)amino)pyridazin-3-yl)isoindolin-1-one]
mrna remaining at 1 µM: 37%
mrna remaining at 10 µM: 10%

SMILES: Cn1ncc(-c2ccc3c(c2)C(=O)N(c2ccc(O[C@H]4C[C@]5(C)CC[C@](C)(C4)N5)nn2)C3)n1 [Compound 425, 2-(6-(((1R,3s,5S)-1,5-dimethyl-8-azabicyclo[3.2.1]octan-3-yl)oxy)pyridazin-3-yl)-6-(2-methyl-2H-1,2,3-triazol-4-yl)isoindolin-1-one]
mrna remaining at 1 µM: 82%
mrna remaining at 10 µM: 70%

SMILES: CN(c1ncc(N2Cc3ccc(-c4cnn(C)n4)cc3C2=O)nn1)[C@H]1C[C@]2(C)CC[C@](C)(C1)N2 [Compound 429, 2-(3-(((1R,3s,5S)-1,5-dimethyl-8-azabicyclo[3.2.1]octan-3-yl)(methyl)amino)-1,2,4-triazin-6-yl)-6-(2-methyl-2H-1,2,3-triazol-4-yl)isoindolin-1-one]
mrna remaining at 1 µM: 102%
mrna remaining at 10 µM: 52%

SMILES: Cc1nn(C)cc1-c1ccc2c(c1)C(=O)N(c1ccc(OC3CC(C)(C)NC4(CC4)C3)nn1)C2 (stereo not shown) [Compound 438, 6-(1,3-dimethyl-1H-pyrazol-4-yl)-2-(6-((5,5-dimethyl-4-azaspiro[2.5]octan-7-yl)oxy)pyridazin-3-yl)isoindolin-1-one]
mrna remaining at 1 µM: 109%
mrna remaining at 10 µM: 81%

SMILES: Cc1nn(C)nc1-c1ccc2c(c1)C(=O)N(c1ccc(O[C@H]3C[C@]4(C)CC[C@](C)(C3)N4)nn1)C2 [Compound 439, 6-(2,5-dimethyl-2H-1,2,3-triazol-4-yl)-2-(6-(((1R,3s,5S)-1,5-dimethyl-8-azabicyclo[3.2.1]octan-3-yl)oxy)pyridazin-3-yl)isoindolin-1-one]
mrna remaining at 1 µM: 87%
mrna remaining at 10 µM: 72%

SMILES: Cc1nn(C)cc1-c1cc(Cl)c2c(c1)C(=O)N(c1ccc(O[C@H]3C[C@]4(C)CC[C@](C)(C3)N4)nn1)C2 [Compound 447, 4-chloro-6-(1,3-dimethyl-1H-pyrazol-4-yl)-2-(6-(((1R,3s,5S)-1,5-dimethyl-8-azabicyclo[3.2.1]octan-3-yl)oxy)pyridazin-3-yl)isoindolin-1-one]
mrna remaining at 1 µM: 94%

SMILES: Cc1nn(C)cc1-c1cc2c(cn1)CN(c1ccc(OC3CCC(C)(C)NC(C)(C)C3)nn1)C2=O (stereo not shown) [Compound 457, 6-(1,3-dimethyl-1H-pyrazol-4-yl)-2-(6-((2,2,7,7-tetramethylazepan-4-yl)oxy)pyridazin-3-yl)-2,3-dihydro-1H-pyrrolo[3,4-c]pyridin-1-one]
mrna remaining at 1 µM: 85%
mrna remaining at 10 µM: 70%

EC50: 820 nM
SMILES: Cn1cc(-c2cc3c(cn2)CN(c2ccc(O[C@H]4C[C@]5(C)CC[C@](C)(C4)N5)nn2)C3=O)c(Cl)n1 [Compound 458, 6-(3-chloro-1-methyl-1H-pyrazol-4-yl)-2-(6-(((1R,3s,5S)-1,5-dimethyl-8-azabicyclo[3.2.1]octan-3-yl)oxy)pyridazin-3-yl)-2,3-dihydro-1H-pyrrolo[3,4-c]pyridin-1-one]
mrna remaining at 1 µM: 40%
mrna remaining at 10 µM: 11%
